Measurements as given in patent publication US20230357761A1, “ACTIVATORS OF TYPE III CAS PROTEINS” (THE REGENTS OF THE UNIVERSITY OF CALIFORNIA, priority 2020, published 2023).
[5mC] = 5-methylcytosine; d = 2'-deoxy (DNA); r = 2'-OH (RNA); f = 2'-fluoro

Key:
[1] = biological target: T1, T. thermophilus Csm6 (TtCsm6) (Thermus thermophilus, UniProt Q53W17); assay: Cas13-coupled TtCsm6 activation assay, fluorescence of cleaved polyC RNA reporter; assay type: biochemical; conditions: for kinetics of development of fluorescent signal over time / duration and level of fluorescent signal: FIG. 2; for kinetics of development of fluorescent signal over time: 20 nM Cas13 RNP, 100 nM Csm6, 100 pM Cas13 activator [R010], 200 nM C5 reporter, 2 μM Type III accessory nuclease activator, IGI buffer, versus unmodified NCR142; for duration and level of fluorescent signal: same reaction as E1, versus unmodified NCR142, which was used at 4 times the concentration
T1 sequence (Q53W17 1-464): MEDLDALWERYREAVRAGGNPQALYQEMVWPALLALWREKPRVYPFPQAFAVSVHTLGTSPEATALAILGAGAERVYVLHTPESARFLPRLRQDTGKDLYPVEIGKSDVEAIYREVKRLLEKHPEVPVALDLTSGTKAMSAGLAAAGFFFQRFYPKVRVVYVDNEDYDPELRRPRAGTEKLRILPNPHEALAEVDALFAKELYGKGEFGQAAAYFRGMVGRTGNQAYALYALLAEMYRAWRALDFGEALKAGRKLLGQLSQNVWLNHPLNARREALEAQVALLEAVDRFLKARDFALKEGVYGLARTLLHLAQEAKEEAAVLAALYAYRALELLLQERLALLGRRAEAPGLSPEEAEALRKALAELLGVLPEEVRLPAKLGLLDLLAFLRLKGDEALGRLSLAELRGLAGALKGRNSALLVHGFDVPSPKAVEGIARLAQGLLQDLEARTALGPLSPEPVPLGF
Experimental: To test the impact of modifications of the Type III accessory nuclease activators, the following system was used (see FIG. 1). Cas13 ribonucleoprotein complexes (RNP) were assembled using LbuCas13 protein and guides at room temperature at a concentration of 0.5 μM Cas13 in 1× reaction buffer.
In some experiments, the 1× reaction buffer comprised 20 mM HEPES, pH 6.8, 50 mM KCl, 5 mM MgCl2, 100 μg/mL BSA, 0.01% Igepal CA, 2% glycerol (“IGI buffer”) while in other experiments, the 1× reaction buffer comprised 20 mM HEPES, pH 6.8, 50 mM KCl, 5 mM MgCl2, 5% glycerol (“Ott buffer”). Once assembled, the RNPs were diluted with 1× reaction buffer to 10× the final [RNP] in the reaction (200 nM for 20 nM final concentration). Concentrated T. thermophilus Csm6 (TtCsm6) protein was also diluted to 10× the concentration (1 μM for 100 nM final concentration) in 1× reaction buffer. The activator mix was assembled on ice, containing 20× concentration of the Cas13 activator, 20× concentration of the secondary Csm6 activator, and 10× of a polyC RNA reporter (6-FAM-CCCCC-Iowa Black®, Integrated DNA Technologies) in 1× reaction buffer. The proteins were then mixed together to make an RNP/protein master mix in 1× reaction buffer. Volumes to use were determined such that 15 μL of this master mix was added to 5 μL of the activator mix for a final volume of 20 μL for the reaction. Reactions were performed in triplicate. The RNP master mix was equilibrated at room temperature for 10-15 minutes. 15 μL of the RNP/protein master mix was then added to 5 μL of the activator master mix (pre-loaded into 384-well low-volume flat-bottom black assay plate, Corning) to start the reaction. Fluorescence of the unquenched 6-FAM group (excitation 485 nm, emission 535 or 528 nm) was monitored over 1-2 hours (one reading every 1.5 or 2 min) in a Tecan or Biotek Cytation 5 plate reader at 37° C. An increase in fluorescence correlates with dequenching of the FAM due to RNA cleavage by TtCsm6.
NCR142, NCR372, NCR373 and NCR374 were compared in the system described above. Specifically, 20 nM Cas13 RNP (assembled at a ratio of 2:1 guide to protein), 100 nM Csm6, 100 pM Cas13 activator [R010]], 200 nM C5 RNA reporter (i.e., 5′-6-FAM-CCCCC-Iowa Black-3′, Integrated DNA Technologies), 2 μM Type III accessory nuclease activator, 1×IGI buffer were used, with the experiment monitored on a Tecan Spark.
Next, several different 2′-deoxy modified Type III accessory nuclease activators were compared where the activators had 1 to 3 modifications and the modifications were in different locations (see Table 3 and FIG. 4). In these experiments, 20 nM Cas13 RNPs using a guide, GJK073, targeting a short synthetic RNA target, GJK075, was used (see Table 2). In addition, 100 nM Csm6 was used, plus 0 to 200 pM Cas13 activator (GJK075), 2 μM Csm6 activator, 200 nM C5 reporter, and Cas13 1× buffer (IGI). The experiments were carried out at 37° C. in low volume flat-bottom black plates and fluorescence was measured on a Biotek Cytation 5.
The NCR497 activator was also tested over a range of Type III accessory nuclease activator concentrations and Type VI nuclease activator concentrations. In these experiments, 20 nM Cas13 RNPs comprising the NCR316 guide at a ratio of 2:1 protein to guide were used. In addition, 100 nM TtCsm6 and 200 nM C5 reporter was used where the reaction was carried out in low-volume, flat-bottom plates at 37° C. analyzed on a Biotek citation 5. Type VI nuclease activator (aNCR316) was used at 2 pM or 200 pM concentrations.
A Type III accessory nuclease activator comprising a single 2′-fluoro modified nucleotide was also modified to create an activator with a single cleavage location for the Cas13 trans nuclease activity. In this Type III accessory nuclease activator, the poly U stretch was replaced with a single U nucleotide followed by C nucleotides. […]

Csm6 = biological target: T2, Csm6 (Thermus thermophilus, UniProt Q53W17); assay: Sensitivity of Cas13 RNA detection with and without Csm6 and its Type III accessory nuclease activator; assay type: biochemical, T. thermophilus; conditions: 37° C.
T2 sequence (Q53W17 1-464): T1 sequence (Q53W17 1-464)
Experimental: In some experiments, the 1× reaction buffer comprised 20 mM HEPES, pH 6.8, 50 mM KCl, 5 mM MgCl2, 100 μg/mL BSA, 0.01% Igepal CA, 2% glycerol (“IGI buffer”) while in other experiments, the 1× reaction buffer comprised 20 mM HEPES, pH 6.8, 50 mM KCl, 5 mM MgCl2, 5% glycerol (“Ott buffer”). Once assembled, the RNPs were diluted with 1× reaction buffer to 10× the final [RNP] in the reaction (200 nM for 20 nM final concentration). Concentrated T. thermophilus Csm6 (TtCsm6) protein was also diluted to 10× the concentration (1 μM for 100 nM final concentration) in 1× reaction buffer. The activator mix was assembled on ice, containing 20× concentration of the Cas13 activator, 20× concentration of the secondary Csm6 activator, and 10× of a polyC RNA reporter (6-FAM-CCCCC-Iowa Black®, Integrated DNA Technologies) in 1× reaction buffer. The proteins were then mixed together to make an RNP/protein master mix in 1× reaction buffer. Volumes to use were determined such that 15 μL of this master mix was added to 5 μL of the activator mix for a final volume of 20 μL for the reaction. […] Fluorescence of the unquenched 6-FAM group (excitation 485 nm, emission 535 or 528 nm) was monitored over 1-2 hours (one reading every 1.5 or 2 min) in a Tecan or Biotek Cytation 5 plate reader at 37° C. An increase in fluorescence correlates with dequenching of the FAM due to RNA cleavage by TtCsm6. […]

## dAdAdAAUUUUUU (AAAAUUUUUU; sugars from the 5' end d3 r7, backbone not given here) [NCR373]
[1]
  kinetics of development of fluorescent signal over time: slower kinetics than the unmodified Type III accessory nuclease activator
  duration and level of fluorescent signal: longer lived and reached higher levels than the unmodified activator

## fAfAfAAUUUUUU (AAAAUUUUUU; sugars from the 5' end f3 r7, backbone not given here) [NCR374]
[1]
  kinetics of development of fluorescent signal over time: slower kinetics than the unmodified Type III accessory nuclease activator
  duration and level of fluorescent signal: longer lived and reached higher levels than the unmodified activator

## AfAAAUUUUUU (AAAAUUUUUU; sugars from the 5' end r1 f1 r8, backbone not given here) [NCR497]
[1]; FIG. 5
  kinetics, 2′-fluoro modified activators: rapid and stable kinetics
[1]; FIG. 5, compared to the 2′-deoxy modified activators
  background signal (0 pM Cas13 activator curves): decreased background signal
[1]; FIGS. 6 and 7, guide NCR316, 2 pM Type VI nuclease activator aNCR316, versus NCR142 at 2 pM or 200 pM
  signal in the reaction: better signal
Csm6; 50 nM Cas13 RNP (guides NCR604 and NCR612), 100 nM Csm6, 2 μM NCR497, gblock7 transcript 0-20 pM, Ott buffer
  limit of detection of the Cas13 activator: approximately 2 fM
Csm6; FIG. 10, 200 nM Cas13 RNP (guide NCR316) alone vs plus 100 nM Csm6 and 2 μM NCR497, aNCR316 200 aM to 200 pM, IGI buffer
  increase in sensitivity when Csm6 reagents were added to the Cas13 detection system: 100 fold

## AAdAAUUUUUU (AAAAUUUUUU; sugars from the 5' end r2 d1 r7, backbone not given here) [NCR654]
[1]; FIG. 4, guide GJK073, 0 to 200 pM Cas13 activator GJK075, 2 μM Csm6 activator, 37° C., versus unmodified activators
  kinetics and signal, 2′-deoxy modified activators: rapid kinetics and were able to achieve a high and stable signal

## AfAAAUCC (metdC) (metdc) C (AAAAUCCCCC; sugars from the 5' end r1 f1 r5 d2 r1, [5mC] at 8, 9, backbone not given here) [NCR690]
[1]; FIGS. 8 and 9, activator at 2, 0.2 and 0.1 μM, Cas13 activator at 200 or 2 pM
  activity of the system: robust activity
[1]; FIGS. 8 and 9, compared to NCR497 at the same concentrations
  background signal: higher background signal compared to the NCR497
